As usually defined, the IC50 is the concentration that gives 50% inhibition.

Structures are written as SMILES. Where two headings read alike, the source gives them in different places.

For test [1], the target named is T1, p38α (Homo sapiens, UniProt Q16539).
T1 construct: p38 MAP Kinases are recombinant human full-length proteins with an amino-terminal GST fusion; GST (N); purchased Upstate (Charlottesville, Va.); host or cells: E. coli
As to the kind of experiment: p38 MAP Kinase assay, ATF2 phosphorylation (ELISA). The class given is biochemical. The note with it: 40 μM ATP. From the text:
Compounds of the invention are screened for the ability to inhibit ATF2 phosphorylation by p38 MAP Kinase in vitro. The ability of compounds to inhibit ATF2 phosphorylation in this in vitro assay is correlated with the inhibition of p38 MAP Kinase and TNFα expression in vivo, and is therefore an indicator of potential in vivo therapeutic activity (Raingeaud, J., et al, J. Biol. Chem., 270: 7420-7426, 1995, Brinkman, M. N., et al, J. Bil. Chem. 274: 30882-30886, 1999 and Fuchs, S. Y. et al, J. Biol. Chem. 275: 12560-12564, 2000).
All kinases and the substrate ATF2 are acquired from Upstate (Charlottesville, Va.). p38 MAP Kinases are recombinant human full-length proteins with an amino-terminal GST fusion, expressed in and purified from E. coli. ATF2 is a GST fusion protein containing amino acids 19-96 of human ATF2 expressed in E. coli. All proteins were aliquoted and stored at −80° C.
p38 MAP Kinase assays are performed using an assay buffer containing 25 mM HEPES, pH 7.5, 10 mM MgCl2, 2 mM DTT, 20 mM β-glycerophosphate, 0.1 mM Na3VO4, 40 μM ATP and 1.25 μM of ATF2, together with 6 ng of p38α protein, 12 ng p38β protein, 1.5 ng p38γ, or 0.4 ng JNK2α2. Compounds are serially diluted in DMSO and 2 μL of test compound at 25× final concentration is used. The vehicle control receives DMSO only. Test compounds are pre-incubated with 20 μl of enzyme in kinase buffer (25 mM HEPES, pH 7.5, 10 mM MgCl2, 2 mM DTT, 20 mM 3-glycerophosphate and 0.1 mM Na3VO4) at room temperature for 15 minutes. […] The reactions are incubated for 30 minutes at 37° C. and terminated by the addition of 18 μl of 200 mM EDTA. An ELISA method is used to measure the phosphorylation of ATF2 at Thr 69. High binding 96-well plates (Corning 3369) are coated with 50 μl of kinase reaction for 1 hour at 37° C. The coated plates are washed with 200 μl washing buffer (25 mM Tris HCl, pH 8.3, 192 mM glycine, 0.1% SDS and 0.05% Tween-20) three times. The plates are then washed three times with SuperBlock in TBS (Pierce, 37535). After blocking, plates are incubated with 50 μl of rabbit anti-phospho-ATF2 antibody (Cell Signaling, 9221 L, 1:500) for 30 minutes at 37° C. Plates are washed three times with washing buffer prior to incubation with 50 μl HRP-conjugated goat anti-rabbit antibody (Cell Signaling, 7074, 1:500) for 30 minutes at 37° C. Plates are then washed three times with washing buffer before incubation with 50 μl of Ultra TMB-ELISA (Pierce, 34028) for 8 minutes at room temperature. Finally, 50 μl of phosphoric acid (1 M) is added to stop reactions and plate absorbance is read at 450 nm on a SpectraMax 250 plate reader.

The subject of test [2] is TNFα release from THP-1 cells. Description: TNFα release from LPS-stimulated THP-1 cells. Type of test: cell-based. From the text:
Compounds of the invention are screened for the ability to inhibit TNFα and IL-1β release from THP-1 cells stimulated with lipopolysaccharide (LPS) in vitro. The ability of compounds to inhibit TNFα and IL-1β release in this in vitro assay is correlated with the inhibition of p38 activity and TNFα and IL-1β expression in vivo, and is therefore an indicator of potential in vivo therapeutic activity (Lee J. C. et al, Ann. N.Y. Acad. Sci. 696: 149-170, 1993 and Nature, 372: 739-746, 1994).
THP-1 cells from ATCC (TIB202) are maintained at 37° C., 5% CO2 in RPMI 1640 media (MediaTech, Herndon, Va.) containing 4.5 g/L glucose, supplemented with 10% fetal bovine serum, 1% penicillin/streptomycin and 50 μM β-mercaptoethanol.
Test compounds are initially dissolved in RPMI media with 1% DMSO (v/v). Compounds are then serially diluted in RPMI media for all subsequent dilutions. The assay is performed under sterile conditions. THP-1 cells at a culture density of 6-8×10^5 cells/ml are collected and resuspended in the RPMI media at 10^6 cells/ml. 100 μl of resuspended cells are added to each well, which contain 100 μl of a test compound. Test compounds are prepared at twice the final concentration. Final DMSO concentration is no more than 0.5% (v/v). Cells are preincubated with compound for 30 minutes at 37° C., 5% CO2 prior to stimulation with lipopolysaccharide (LPS) (Sigma L-2880, 4 mg/ml stock in PBS). The final LPS concentration in each well is 10 or 30 μg/ml for TNFα and IL-1β release, respectively. Unstimulated control cell suspensions receive PBS vehicle only. Cell mixtures are incubated for 18 or 48 hours for TNFα and IL-1β release, respectively. 150 μl of supernatants are taken and transferred to a fresh plate and stored at −20° C. until further analysis.

[3] abbreviates: Homo sapiens, THP-1, 18 h, LPS 10 μg/ml, 18 hours, read-out: TNFα (THP-1) IC50.
Setting [4] is: Homo sapiens, THP-1, 18 h, read-out: TNFα (THP-1) IC50 (nM).
The mark [5] stands for this setting: LPS 10 μg/ml, 18 hours, read-out: TNFα (THP-1) IC50.

T1 sequence (Q16539 whole entry, the tested form may be a part): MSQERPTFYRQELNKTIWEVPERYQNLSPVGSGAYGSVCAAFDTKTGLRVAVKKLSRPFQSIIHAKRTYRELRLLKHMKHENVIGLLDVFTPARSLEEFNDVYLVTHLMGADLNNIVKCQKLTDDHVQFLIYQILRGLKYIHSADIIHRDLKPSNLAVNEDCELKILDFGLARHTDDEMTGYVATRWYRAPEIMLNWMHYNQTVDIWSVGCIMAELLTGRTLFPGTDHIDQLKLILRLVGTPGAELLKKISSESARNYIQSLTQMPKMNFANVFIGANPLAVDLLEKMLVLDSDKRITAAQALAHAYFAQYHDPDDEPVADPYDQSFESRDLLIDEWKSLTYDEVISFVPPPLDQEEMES

For the molecule `Clc1ccccc1-c1nc2occn2c1-c1ccnc(NC2CCNCC2)n1` [CCCXIV], the 50% inhibitory concentration (IC50) in test [1] turned out to be 14.5 nM; in test [2] (setting [3]), 24.6 nM.

In the case of `CS(=O)(=O)N1CCC(Nc2nccc(-c3c(-c4ccc(F)cc4Cl)nc4occn34)n2)CC1` [CCCXIX], the half-inhibitory concentration (IC50) in test [1] stood at 0.3 nM; in test [2] (setting [3]), 17.7 nM.

On to `CC(C)(C)OC(=O)N1CCC(Nc2nccc(-c3c(-c4cccc(C(F)(F)F)c4)nc4occn34)n2)CC1` [CCCXI], for which the results for the IC50 in test [1] and in test [2] (setting [3]) were 18 nM and 611 nM, respectively.

Regarding `CS(=O)(=O)N1CCC(Nc2nccc(-c3c(-c4ccccc4Cl)nc4occn34)n2)CC1` [CCCXVIII], the 50% inhibitory concentration (IC50) in test [1] is 1 nM; in test [2] (setting [3]) it was 18.2 nM.

For the molecule `CC(=O)N1CCC(Nc2nccc(-c3c(-c4ccc(F)cc4F)nc4occn34)n2)CC1` [CCCXVII], the half-inhibitory concentration (IC50) in test [1] is 3 nM; in test [2] (setting [3]), 13.7 nM.

As to `CS(=O)(=O)N1CCC(Nc2nccc(-c3c(-c4cccc(C(F)(F)F)c4)nc4occn34)n2)CC1` [CCCXVI], the results for the IC50 in test [1] and in test [2] (setting [3]) were 0.9 nM and 33.7 nM, respectively.

As for `Cc1ccccc1-c1nc2occn2c1-c1ccnc(NC2C[C@H]3CC[C@@H](C2)N3C)n1` (stereo partly drawn) [CCCXX], the figures for the IC50 in test [1] and in test [2] (setting [4]) were 13.9 nM and 23.7 nM, respectively.

On to `CN1[C@@H]2CC[C@H]1C[C@@H](Nc1nccc(-c3c(-c4cccc(C(F)(F)F)c4)nc4occn34)n1)C2` [CCCX], for which the IC50 was determined as 9.3 nM in test [1] and 47.9 nM in test [2] (setting [3]).

Take `CC(C)[C@@H](CO)Nc1nccc(-c2c(-c3cccc(F)c3)nc3sccn23)n1` [CCIX]: the IC50 in test [1] was 26 nM; in test [2] (setting [3]), 55.9 nM.

For the molecule `CC(C)[C@@H](CO)Nc1nccc(-c2c(-c3ccc(Br)cc3)nc3sccn23)n1` [CCI], the IC50 was 75.7 nM in test [1] and 101 nM in test [2] (setting [3]).

Take `CC(=O)N1CCC(Nc2nccc(-c3c(-c4ccc(F)cc4)nc4sccn34)n2)CC1` [CCLIII]: the IC50 is 1.65 nM in test [1] and 6.27 nM in test [2] (setting [3]).

On to `O=C(c1ccc(F)cc1)N1CCC(Nc2nccc(-c3c(-c4ccc(F)cc4)nc4sccn34)n2)CC1` [CCLII], for which the figures for the IC50 in test [1] and in test [2] (setting [3]) were 2.02 nM and 21.9 nM, respectively.

Regarding `Fc1ccc(CN2CCC(Nc3nccc(-c4c(-c5ccc(F)cc5)nc5sccn45)n3)CC2)cc1` [CCLIV], the IC50 is 30.2 nM in test [1] and 345 nM in test [2] (setting [3]).

On to `C[C@@H](Nc1nccc(-c2c(-c3ccc(F)cc3)nc3sccn23)n1)C(N)=O` [CCLIX], for which the IC50 in test [1] was 22.2 nM; in test [2] (setting [3]), 47.7 nM.

As to `OC(CNc1nccc(-c2c(-c3ccc(F)cc3)nc3sccn23)n1)COc1ccccc1` (stereo not drawn) [CCLI], the results for the IC50 in test [1] and in test [2] (setting [3]) were 14.3 nM and 84.9 nM, respectively.

On to `Fc1ccc(-c2nc3sccn3c2-c2ccnc(NCCN3CCN(Cc4ccccc4)CC3)n2)cc1` [CCLVIII], for which the IC50 in test [1] stood at 57.7 nM; in test [2] (setting [3]), 643 nM.

`CC(CN(C)C)Nc1nccc(-c2c(-c3ccc(F)cc3)nc3sccn23)n1` (stereo not drawn) [CCLVII]: the half-maximal inhibitory concentration (IC50) in test [1] amounted to 25.4 nM; in test [2] (setting [3]), 38.6 nM.

Take `O=C(Nc1ccc(F)cc1)N1CCC(Nc2nccc(-c3c(-c4ccc(F)cc4)nc4sccn34)n2)CC1` [CCLVI]: the half-maximal inhibitory concentration (IC50) came out at 1.07 nM in test [1] and 9.68 nM in test [2] (setting [3]).

Regarding `CCNC(=O)N1CCC(Nc2nccc(-c3c(-c4ccc(F)cc4)nc4sccn34)n2)CC1` [CCLV], the IC50 turned out to be 2.12 nM in test [1] and 10.8 nM in test [2] (setting [3]).

For the molecule `CC(C)(CNC(=O)OC(C)(C)C)CNc1nccc(-c2c(-c3ccc(F)cc3)nc3sccn23)n1` [CCLXIII], the IC50 in test [1] came out at 5.85 nM; in test [2] (setting [3]) it was 23.3 nM.

For `CC(C)(C)OC(=O)N1CCCC(Nc2nccc(-c3c(-c4ccc(F)cc4)nc4sccn34)n2)C1` (stereo not drawn) [CCLXII], the IC50 in test [1] worked out at 29.8 nM; in test [2] (setting [3]), 196 nM.

On to `CC(C)(C)OC(=O)N1CCCC1CNc1nccc(-c2c(-c3ccc(F)cc3)nc3sccn23)n1` (stereo not drawn) [CCLXIV], for which the results for the IC50 in test [1] and in test [2] (setting [3]) were 7.26 nM and 27.5 nM, respectively.

Regarding `CS(=O)(=O)N1CCC(Nc2nccc(-c3c(-c4ccc(F)cc4)nc4sccn34)n2)CC1` [CCLXI], the results for the IC50 in test [1] and in test [2] (setting [3]) were 1.31 nM and 3.08 nM, respectively.

For `CC(C)[C@@H](CO)Nc1nccc(-c2c(-c3ccc(Br)cc3)nc3sccn23)n1` [CCLXXI], the figures for the IC50 in test [1] and in test [2] (setting [5]) were 75.7 nM and 100 nM, respectively.

For the molecule `Cc1ccc(-c2nc3sccn3c2-c2ccnc(N[C@H](CO)C(C)C)n2)cc1` [CCLXXVII], the IC50 was 147 nM in test [1] and 58.7 nM in test [2] (setting [5]).

For the molecule `CC(C)[C@@H](CO)Nc1nccc(-c2c(-c3ccc(F)c(F)c3)nc3sccn23)n1` [CCLXXV], the IC50 in test [1] came out at 191 nM; in test [2] (setting [5]), 43.3 nM.

Consider `CC(C)(C)OC(=O)N1CCC(Nc2nccc(-c3c(-c4ccc(F)cc4F)nc4occn34)n2)CC1` [CCLXXXIII], for which the IC50 in test [1] came out at 1.1 nM; in test [2] (setting [3]) it was 52.7 nM.

Regarding `CN(C)CC(C)(C)CNc1nccc(-c2c(-c3ccccc3Cl)nc3occn23)n1` [CCLXXXII], the half-inhibitory concentration (IC50) came to 44.8 nM in test [1] and 88.4 nM in test [2] (setting [3]).

With `CC(C)(C)OC(=O)N1CCC(Nc2nccc(-c3c(-c4ccc(F)cc4Cl)nc4occn34)n2)CC1` [CCLXXXIV], the IC50 in test [1] amounted to 1.4 nM; in test [2] (setting [3]), 96.2 nM.

For the molecule `Fc1ccc(-c2nc3occn3c2-c2ccnc(N[C@@H]3CN4CCC3CC4)n2)c(F)c1` [CCLXXXIX], the half-maximal inhibitory concentration (IC50) in test [1] stood at 1.3 nM; in test [2] (setting [4]) it was 3.2 nM.

In the case of `Cc1ccccc1-c1nc2occn2c1-c1ccnc(NC2CCN(C(=O)OC(C)(C)C)CC2)n1` [CCLXXXVIII], the 50% inhibitory concentration (IC50) in test [1] was determined as 4.8 nM; in test [2] (setting [3]) it was 211 nM.

Consider `CC(C)(C)OC(=O)N1CCC(Nc2nccc(-c3c(-c4ccccc4Cl)nc4occn34)n2)CC1` [CCLXXXVII], for which the 50% inhibitory concentration (IC50) in test [1] was 8.2 nM; in test [2] (setting [3]), 170 nM.

On to `Fc1ccc(-c2nc3occn3c2-c2ccnc(NC3CCNCC3)n2)c(Cl)c1` [CCLXXXVI], for which the IC50 in test [1] came to 7 nM; in test [2] (setting [3]) it was 67.3 nM.

Turning to `Fc1ccc(-c2nc3occn3c2-c2ccnc(NC3CCNCC3)n2)c(F)c1` [CCLXXXV], the results for the IC50 in test [1] and in test [2] (setting [3]) were 3.3 nM and 9.9 nM, respectively.

Regarding `COc1cccc(-c2nc3sccn3c2-c2ccnc(N[C@H](CO)C(C)C)n2)c1` [CCLXX], the IC50 in test [1] turned out to be 112 nM; in test [2] (setting [5]) it was 93.5 nM.

Turning to `CC(C)(Nc1nccc(-c2c(-c3ccc(F)cc3)nc3sccn23)n1)C(O)c1ccccc1` (stereo not drawn) [CCLX], the IC50 was found to be 30 nM in test [1] and 213 nM in test [2] (setting [3]).

Values taken from patent US20070270418A1, “Inhibitors of P38 and Methods of Using the Same” (priority 2003, published 2007).
